Active and inactive are the calls of the source.
Experiments:
Estrogen receptor beta [1] = target: T1, Estrogen receptor beta (Homo sapiens, UniProt Q92731);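 also: recombinant ER-beta bound to coactivator SRC1 peptide in presence of estradiol agonist; inhibitors block coactivator peptide binding and lower the FRET signal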
Estrogen receptor beta [2] = target: T1, Estrogen receptor beta; assay: blockers of SRC-3 recruitment to ERβ – biochemical, ELISA, streptavidin-HRP readout, orthogonal assay, confirmation (AID 1060)
[3] = target: Neuropeptides B/W receptor type 1 (Homo sapiens, UniProt P48145); assay: Fluorescence-based dose response cell-based high throughput screening assay to identify antagonists of the G-protein coupled receptor 7 (GPR7). [Related pubchem assays: 1952 (Screening assay (GPR7 antagonists).), 1880 (Summary AID.)]; assay type: functional
[4] = target: T2, Neuropeptide Y receptor type 2 (Homo sapiens, UniProt P49146); assay: IC50 for human NPY-Y2 blockade – cell-based, counter-screen for NPY-Y1 antagonist project, dose response (AID 1278); assay type: functional
T2 sequence (P49146 whole entry): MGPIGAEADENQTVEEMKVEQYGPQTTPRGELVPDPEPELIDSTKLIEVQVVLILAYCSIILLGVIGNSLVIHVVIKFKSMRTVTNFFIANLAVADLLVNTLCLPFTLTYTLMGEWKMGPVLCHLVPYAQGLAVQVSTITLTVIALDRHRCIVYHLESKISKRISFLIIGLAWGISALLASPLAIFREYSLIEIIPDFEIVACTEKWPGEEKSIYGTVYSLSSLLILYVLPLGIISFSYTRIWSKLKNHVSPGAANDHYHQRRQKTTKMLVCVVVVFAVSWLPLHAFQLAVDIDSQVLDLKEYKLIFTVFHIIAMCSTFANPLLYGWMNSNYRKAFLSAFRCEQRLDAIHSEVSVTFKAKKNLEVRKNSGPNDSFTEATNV

[5] = target: Melanin-concentrating hormone receptor 1 (Homo sapiens, UniProt Q99705); assay: Fluorescence-based counterscreen for antagonists of the G-protein coupled receptor 7 (GPR7): cell-based high throughput dose response assay to identify antagonists of the melanin-concentrating hormone receptor 1 (MCHR1).; assay type: functional
[6] = target: T3, Neuropeptide Y receptor type 1 (Homo sapiens, UniProt P25929); assay: IC50 of human NPY-Y1 blockers – cell-based, dose response (AID 1277); assay type: functional
T3 sequence (P25929 whole entry): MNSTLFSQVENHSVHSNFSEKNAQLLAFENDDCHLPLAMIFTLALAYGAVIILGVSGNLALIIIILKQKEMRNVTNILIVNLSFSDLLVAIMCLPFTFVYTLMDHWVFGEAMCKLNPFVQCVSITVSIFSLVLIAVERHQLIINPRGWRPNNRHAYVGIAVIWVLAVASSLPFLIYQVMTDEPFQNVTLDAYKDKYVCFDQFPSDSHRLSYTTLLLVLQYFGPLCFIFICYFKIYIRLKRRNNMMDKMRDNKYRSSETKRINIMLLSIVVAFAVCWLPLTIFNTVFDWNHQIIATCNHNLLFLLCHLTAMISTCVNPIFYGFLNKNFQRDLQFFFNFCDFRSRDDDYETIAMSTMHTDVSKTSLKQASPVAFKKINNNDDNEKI

[7] = target: G-protein coupled receptor 55 (Homo sapiens, UniProt Q9Y2T6); assay: inhibition of LPI-stimulated GPR55 beta-arrestin translocation – imaging, U2OS, beta-arrestin-GFP, LPI agonist, primary screen (AID 2013); assay type: functional;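 also: antagonist potency measured as reduced agonist-driven arrestin aggregation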
[8] = HPDE-C7 pancreatic duct cell viability loss – fluorescence, HTS (AID 430); assay type: functional, cell-based; conditions: Homo sapiens
[9] = viability loss of HPDE-C7K cells – cell-based, fluorescence, HTS, primary screen (AID 431); assay type: functional; conditions: Homo sapiens
[10] = viability of PTEN-deleted HCT116 cells – cell-based, HCT116 PTEN knockout, dose response (AID 1047); assay type: functional;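 also: HCT116 colon tumor cells with PTEN knocked out; cells exposed to compound for 60 hours before readout; potency for loss of cell viability measured by luminescence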
[11] = viability of HCT116 lacking mutant beta-catenin – cell-based, human colon tumor, dose response (AID 1045); assay type: functional;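 also: HCT116 colon tumor cells with beta catenin knocked out; cells exposed to compound for 60 hours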
[12] = blockers of HIV-1 envelope-mediated cell-cell fusion – cherry-pick, dose response (AID 652057); assay type: functional, cell-based
[13] = blockers of HIV-1 ZM109 envelope-driven cell-cell fusion – HeLa effector, CEM target cells, luciferase, cherry-pick, dose response (AID 652058); assay type: functional, cell-based;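 also: luciferase signal from HIV-1 Env mediated cell-cell fusion of effector and target cells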
[14] = off-target signal loss in HeLa-CEM21 co-culture – HeLa F-luc CTL cells, cherry-picked, counter-screen for HIV-1 Env fusion inhibitor project, dose response (AID 652040); assay type: functional, cell-based;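 also: potency for signal decrease marking cytotoxic or nonspecific inhibition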
[15] = HIV-1 AD8 envelope cell-cell fusion blockers – cherry-pick, dose response (AID 652062); assay type: functional, cell-based;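 also: luciferase signal from cell-cell fusion driven by HIV-1 clade B AD8 Env; potency is for inhibitors of fusion seen as a drop in luminescence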
Leucine aminopeptidase = target: T4, Leucine aminopeptidase (Plasmodium falciparum 3D7, UniProt Q8IL11); assay: P. falciparum M17LAP inhibitors, primary screen, biochemical, fluorogenic H-Leu-NHMec substrate, 1536-well (AID 1619); assay type: functional
T4 sequence (Q8IL11 whole entry): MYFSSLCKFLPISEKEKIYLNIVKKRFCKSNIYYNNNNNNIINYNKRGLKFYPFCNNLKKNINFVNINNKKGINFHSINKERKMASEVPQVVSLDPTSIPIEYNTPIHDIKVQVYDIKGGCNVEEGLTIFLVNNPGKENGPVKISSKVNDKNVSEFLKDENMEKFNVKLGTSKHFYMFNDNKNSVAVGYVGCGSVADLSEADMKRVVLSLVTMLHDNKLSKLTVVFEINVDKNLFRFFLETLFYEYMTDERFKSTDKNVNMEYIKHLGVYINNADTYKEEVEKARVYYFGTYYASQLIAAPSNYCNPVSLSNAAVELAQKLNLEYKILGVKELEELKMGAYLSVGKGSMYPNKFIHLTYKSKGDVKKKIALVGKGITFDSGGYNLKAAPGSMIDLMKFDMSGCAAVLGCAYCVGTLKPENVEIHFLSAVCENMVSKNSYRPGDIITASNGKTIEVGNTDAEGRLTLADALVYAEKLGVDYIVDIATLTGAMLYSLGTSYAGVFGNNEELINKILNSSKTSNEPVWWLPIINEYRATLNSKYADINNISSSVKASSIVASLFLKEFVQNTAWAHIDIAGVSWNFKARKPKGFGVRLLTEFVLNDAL

Aspartyl aminopeptidase = Aspartyl aminopeptidase (Plasmodium falciparum 3D7, UniProt Q8I2J3); assay: Counterscreen for inhibitors of M1 and M17 aminopeptidases: QFRET-based biochemical high throughput dose response assay for inhibitors of the Plasmodium falciparum M18 Aspartyl Aminopeptidase (PFM18AAP). [Related PubChem assays: 1619 (Screening assay (M17LAP inhibitors).), 1445 (Screening assay (M1AAP inhibitors).)]
Procathepsin L = Procathepsin L (Homo sapiens, UniProt P07711); assay: CTSL1 protease inhibition – biochemical, QFRET, 1536-well, counter-screen for M1/M17 aminopeptidase inhibitor project, dose response (AID 2214)
[16] = target: T5, Replicative DNA helicase DnaB (Mycobacterium tuberculosis, UniProt P9WMR3); assay: DnaB intein splicing inhibitors, dose response, biochemical, cell-free fluorescence (AID 449749); assay type: functional
T5 sequence (P9WMR3 whole entry): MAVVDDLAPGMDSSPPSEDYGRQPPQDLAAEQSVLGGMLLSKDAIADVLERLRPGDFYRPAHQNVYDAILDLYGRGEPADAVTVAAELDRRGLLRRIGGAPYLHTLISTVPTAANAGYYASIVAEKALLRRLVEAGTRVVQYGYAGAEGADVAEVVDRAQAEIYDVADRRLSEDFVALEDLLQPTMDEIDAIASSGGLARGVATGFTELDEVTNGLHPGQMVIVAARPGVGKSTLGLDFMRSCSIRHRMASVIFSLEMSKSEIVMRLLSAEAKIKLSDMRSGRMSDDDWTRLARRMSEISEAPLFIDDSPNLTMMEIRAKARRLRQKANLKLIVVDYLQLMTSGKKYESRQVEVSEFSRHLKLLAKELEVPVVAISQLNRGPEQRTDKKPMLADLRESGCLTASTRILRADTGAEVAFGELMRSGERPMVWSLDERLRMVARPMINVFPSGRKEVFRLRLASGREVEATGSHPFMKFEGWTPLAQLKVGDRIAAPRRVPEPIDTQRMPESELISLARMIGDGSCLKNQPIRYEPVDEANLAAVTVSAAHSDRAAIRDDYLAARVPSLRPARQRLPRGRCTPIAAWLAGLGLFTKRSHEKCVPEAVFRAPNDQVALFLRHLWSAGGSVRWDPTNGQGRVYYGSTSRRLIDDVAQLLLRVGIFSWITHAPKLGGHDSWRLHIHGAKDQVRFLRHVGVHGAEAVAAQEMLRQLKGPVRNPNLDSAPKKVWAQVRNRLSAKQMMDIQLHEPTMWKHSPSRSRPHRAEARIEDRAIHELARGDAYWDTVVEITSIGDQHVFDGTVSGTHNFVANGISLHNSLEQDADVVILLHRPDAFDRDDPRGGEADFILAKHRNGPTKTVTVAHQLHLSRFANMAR

Protein RecA = target: T6, Protein RecA (Mycobacterium tuberculosis, UniProt P9WHJ3); assay: Fluorescence Cell-Free Homogeneous Dose Retest to Identify Inhibitors of RecA-Intein Splicing Activity. [Related pubchem assays (depositor defined):AID2097, AID2223, AID489010, AID492950]; assay type: functional
T6 sequence (P9WHJ3 whole entry): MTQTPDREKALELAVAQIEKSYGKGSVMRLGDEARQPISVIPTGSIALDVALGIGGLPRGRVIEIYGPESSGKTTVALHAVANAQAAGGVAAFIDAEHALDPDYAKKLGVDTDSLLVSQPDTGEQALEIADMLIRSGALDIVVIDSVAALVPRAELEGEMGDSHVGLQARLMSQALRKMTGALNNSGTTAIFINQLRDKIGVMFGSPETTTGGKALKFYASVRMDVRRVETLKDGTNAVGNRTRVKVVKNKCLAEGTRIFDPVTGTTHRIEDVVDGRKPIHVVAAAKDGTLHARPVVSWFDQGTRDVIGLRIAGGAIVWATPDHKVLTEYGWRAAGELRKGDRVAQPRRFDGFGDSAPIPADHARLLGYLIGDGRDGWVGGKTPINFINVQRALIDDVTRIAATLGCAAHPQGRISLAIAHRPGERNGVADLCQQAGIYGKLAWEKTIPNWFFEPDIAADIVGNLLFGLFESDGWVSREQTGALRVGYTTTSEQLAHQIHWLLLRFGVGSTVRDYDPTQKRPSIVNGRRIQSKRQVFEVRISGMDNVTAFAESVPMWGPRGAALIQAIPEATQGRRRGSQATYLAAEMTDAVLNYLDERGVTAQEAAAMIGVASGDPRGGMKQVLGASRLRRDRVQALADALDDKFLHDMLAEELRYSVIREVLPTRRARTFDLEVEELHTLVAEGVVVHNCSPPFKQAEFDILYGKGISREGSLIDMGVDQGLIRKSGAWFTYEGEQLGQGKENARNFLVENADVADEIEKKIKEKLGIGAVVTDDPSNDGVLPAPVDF

[17] = target: Potassium voltage-gated channel subfamily KQT member 2 (Rattus norvegicus, UniProt O88943, W236L); assay: potentiation of rat KCNQ2 current – cell-based, automated electrophysiology, mechanism study for KCNQ2 potentiator project, dose response (AID 2603); assay type: functional
[18] = target: T7, Calpain-2 catalytic subunit (Sus scrofa, UniProt P43367); assay: m-calpain protease blockers, concentration series – biochemical, fluorogenic peptide substrate, dose response (AID 1420); assay type: functional
T7 sequence (P43367 whole entry): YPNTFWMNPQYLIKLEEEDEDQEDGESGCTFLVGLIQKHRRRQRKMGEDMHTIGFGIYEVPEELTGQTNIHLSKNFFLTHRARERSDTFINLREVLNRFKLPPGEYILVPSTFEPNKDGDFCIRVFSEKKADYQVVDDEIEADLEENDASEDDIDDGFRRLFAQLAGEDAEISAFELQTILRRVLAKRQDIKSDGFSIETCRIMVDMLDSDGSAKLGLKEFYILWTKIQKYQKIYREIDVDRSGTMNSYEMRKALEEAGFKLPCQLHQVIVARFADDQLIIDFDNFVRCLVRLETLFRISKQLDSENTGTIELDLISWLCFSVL

Large T antigen = Large T antigen (Simian virus 40, UniProt P03070); assay type: functional, Betapolyomavirus macacae;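 also: Confirmatory-stage PubChem screen for compounds that inhibit SV40 T antigen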
[19] = target: Protein-tyrosine kinase 2-beta (Homo sapiens, UniProt Q14289);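 also: potency of inhibitors of PYK2 kinase phosphorylation of poly-GT substrate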
Sequence of Protein-tyrosine kinase 2-beta (Q14289 whole entry): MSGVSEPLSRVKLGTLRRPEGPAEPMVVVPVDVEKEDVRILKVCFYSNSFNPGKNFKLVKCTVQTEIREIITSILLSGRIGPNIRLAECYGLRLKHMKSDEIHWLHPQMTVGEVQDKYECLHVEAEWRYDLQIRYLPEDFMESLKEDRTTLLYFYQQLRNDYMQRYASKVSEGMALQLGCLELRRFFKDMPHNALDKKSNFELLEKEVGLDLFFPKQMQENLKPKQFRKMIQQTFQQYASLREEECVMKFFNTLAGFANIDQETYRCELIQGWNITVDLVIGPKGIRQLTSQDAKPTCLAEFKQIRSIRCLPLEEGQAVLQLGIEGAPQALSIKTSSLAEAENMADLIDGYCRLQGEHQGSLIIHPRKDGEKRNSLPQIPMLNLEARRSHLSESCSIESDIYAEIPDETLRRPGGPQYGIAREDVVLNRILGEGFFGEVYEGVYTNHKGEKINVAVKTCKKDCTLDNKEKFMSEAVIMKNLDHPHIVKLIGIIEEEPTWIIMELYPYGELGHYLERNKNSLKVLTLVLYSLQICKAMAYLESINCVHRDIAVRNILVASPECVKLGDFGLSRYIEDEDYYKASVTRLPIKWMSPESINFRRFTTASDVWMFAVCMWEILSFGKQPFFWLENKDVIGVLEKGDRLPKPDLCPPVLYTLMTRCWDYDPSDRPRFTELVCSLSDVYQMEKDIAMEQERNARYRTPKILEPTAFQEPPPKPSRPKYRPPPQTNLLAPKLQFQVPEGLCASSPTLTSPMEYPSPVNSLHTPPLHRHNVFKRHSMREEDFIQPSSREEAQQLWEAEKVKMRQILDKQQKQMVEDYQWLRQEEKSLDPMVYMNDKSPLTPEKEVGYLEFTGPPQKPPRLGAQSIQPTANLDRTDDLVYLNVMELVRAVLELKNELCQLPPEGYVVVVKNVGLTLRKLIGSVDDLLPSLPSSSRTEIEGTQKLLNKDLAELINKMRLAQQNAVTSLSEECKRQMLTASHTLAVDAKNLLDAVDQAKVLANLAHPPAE

T1 sequence (Q92731 whole entry): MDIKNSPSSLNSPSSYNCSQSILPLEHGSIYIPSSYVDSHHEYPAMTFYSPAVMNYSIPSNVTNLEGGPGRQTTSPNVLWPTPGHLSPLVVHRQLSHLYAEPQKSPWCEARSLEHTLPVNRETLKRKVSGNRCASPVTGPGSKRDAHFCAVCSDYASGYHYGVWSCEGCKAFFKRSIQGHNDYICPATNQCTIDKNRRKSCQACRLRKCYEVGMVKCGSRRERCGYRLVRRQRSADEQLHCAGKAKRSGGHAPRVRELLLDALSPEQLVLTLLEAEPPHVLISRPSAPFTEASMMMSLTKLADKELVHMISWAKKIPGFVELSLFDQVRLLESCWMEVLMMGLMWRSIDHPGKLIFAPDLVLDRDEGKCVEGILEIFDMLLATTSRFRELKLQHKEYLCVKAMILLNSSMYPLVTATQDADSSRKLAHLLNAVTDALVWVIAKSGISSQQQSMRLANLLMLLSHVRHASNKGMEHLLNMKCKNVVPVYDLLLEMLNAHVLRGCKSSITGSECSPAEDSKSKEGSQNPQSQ
Sequence of Neuropeptides B/W receptor type 1 (P48145 whole entry): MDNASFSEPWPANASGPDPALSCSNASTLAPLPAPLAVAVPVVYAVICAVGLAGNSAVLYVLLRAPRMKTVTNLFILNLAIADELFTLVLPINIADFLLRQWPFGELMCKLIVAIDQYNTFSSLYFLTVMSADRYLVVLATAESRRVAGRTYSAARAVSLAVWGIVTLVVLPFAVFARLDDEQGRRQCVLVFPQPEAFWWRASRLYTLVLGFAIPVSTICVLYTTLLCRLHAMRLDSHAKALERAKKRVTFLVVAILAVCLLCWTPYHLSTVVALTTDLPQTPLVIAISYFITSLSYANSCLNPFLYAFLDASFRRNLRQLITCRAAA
Sequence of Procathepsin L (P07711 whole entry): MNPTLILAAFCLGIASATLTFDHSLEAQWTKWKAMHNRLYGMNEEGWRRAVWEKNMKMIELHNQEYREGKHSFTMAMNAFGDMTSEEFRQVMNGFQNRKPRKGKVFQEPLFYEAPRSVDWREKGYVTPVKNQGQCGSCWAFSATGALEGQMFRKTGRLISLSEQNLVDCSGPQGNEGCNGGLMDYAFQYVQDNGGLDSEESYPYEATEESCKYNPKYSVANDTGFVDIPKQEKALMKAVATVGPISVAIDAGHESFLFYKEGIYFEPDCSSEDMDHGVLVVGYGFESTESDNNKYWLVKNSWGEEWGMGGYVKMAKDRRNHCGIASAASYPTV
Sequence of Potassium voltage-gated channel subfamily KQT member 2 (O88943 whole entry W236L): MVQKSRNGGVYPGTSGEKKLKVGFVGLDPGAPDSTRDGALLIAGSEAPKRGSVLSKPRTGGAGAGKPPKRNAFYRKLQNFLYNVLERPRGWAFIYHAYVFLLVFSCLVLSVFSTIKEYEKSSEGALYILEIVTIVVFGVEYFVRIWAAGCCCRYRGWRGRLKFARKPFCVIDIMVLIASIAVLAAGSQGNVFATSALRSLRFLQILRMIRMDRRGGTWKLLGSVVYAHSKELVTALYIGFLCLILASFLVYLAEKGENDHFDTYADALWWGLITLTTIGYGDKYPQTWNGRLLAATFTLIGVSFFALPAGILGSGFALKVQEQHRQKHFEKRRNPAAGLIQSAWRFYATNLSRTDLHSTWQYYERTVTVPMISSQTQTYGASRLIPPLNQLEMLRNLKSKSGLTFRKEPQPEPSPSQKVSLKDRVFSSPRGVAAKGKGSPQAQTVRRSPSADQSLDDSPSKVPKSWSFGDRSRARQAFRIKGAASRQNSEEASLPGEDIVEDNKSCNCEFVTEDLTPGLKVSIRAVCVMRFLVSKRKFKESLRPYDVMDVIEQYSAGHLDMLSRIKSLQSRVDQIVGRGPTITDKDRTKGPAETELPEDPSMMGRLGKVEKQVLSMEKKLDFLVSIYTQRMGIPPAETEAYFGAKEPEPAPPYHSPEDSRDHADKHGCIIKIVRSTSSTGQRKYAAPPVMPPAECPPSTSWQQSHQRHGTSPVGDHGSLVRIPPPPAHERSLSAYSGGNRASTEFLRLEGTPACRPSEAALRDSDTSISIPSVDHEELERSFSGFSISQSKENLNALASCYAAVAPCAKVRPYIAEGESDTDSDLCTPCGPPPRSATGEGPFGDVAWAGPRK
Sequence of G-protein coupled receptor 55 (Q9Y2T6 whole entry): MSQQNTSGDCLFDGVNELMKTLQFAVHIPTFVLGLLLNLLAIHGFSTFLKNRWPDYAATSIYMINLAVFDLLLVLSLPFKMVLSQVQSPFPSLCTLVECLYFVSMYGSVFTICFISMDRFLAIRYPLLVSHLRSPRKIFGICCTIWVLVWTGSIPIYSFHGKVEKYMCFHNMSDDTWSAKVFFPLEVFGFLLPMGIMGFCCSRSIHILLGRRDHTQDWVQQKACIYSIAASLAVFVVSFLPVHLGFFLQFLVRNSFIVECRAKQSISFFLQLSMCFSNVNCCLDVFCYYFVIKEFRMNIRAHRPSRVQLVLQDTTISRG
Sequence of Large T antigen (P03070 whole entry): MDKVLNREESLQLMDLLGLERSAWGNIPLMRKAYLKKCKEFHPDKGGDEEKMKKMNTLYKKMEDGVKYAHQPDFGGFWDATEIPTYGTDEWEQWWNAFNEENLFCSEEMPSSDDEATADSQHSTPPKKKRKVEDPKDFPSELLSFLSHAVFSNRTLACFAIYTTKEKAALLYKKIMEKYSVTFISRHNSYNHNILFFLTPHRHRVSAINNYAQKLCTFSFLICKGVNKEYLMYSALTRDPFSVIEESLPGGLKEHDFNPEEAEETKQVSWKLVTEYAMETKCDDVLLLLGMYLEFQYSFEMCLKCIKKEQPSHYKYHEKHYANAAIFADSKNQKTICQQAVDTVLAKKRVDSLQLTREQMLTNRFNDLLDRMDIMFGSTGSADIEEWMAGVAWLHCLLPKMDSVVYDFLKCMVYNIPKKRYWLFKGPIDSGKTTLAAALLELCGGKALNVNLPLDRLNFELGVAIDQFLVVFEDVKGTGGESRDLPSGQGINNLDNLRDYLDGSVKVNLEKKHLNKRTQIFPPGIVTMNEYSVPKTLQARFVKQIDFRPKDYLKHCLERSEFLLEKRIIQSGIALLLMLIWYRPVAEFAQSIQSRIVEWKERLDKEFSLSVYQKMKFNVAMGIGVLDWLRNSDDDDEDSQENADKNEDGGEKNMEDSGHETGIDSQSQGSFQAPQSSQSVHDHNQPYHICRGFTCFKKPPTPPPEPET
Sequence of Aspartyl aminopeptidase (Q8I2J3 whole entry): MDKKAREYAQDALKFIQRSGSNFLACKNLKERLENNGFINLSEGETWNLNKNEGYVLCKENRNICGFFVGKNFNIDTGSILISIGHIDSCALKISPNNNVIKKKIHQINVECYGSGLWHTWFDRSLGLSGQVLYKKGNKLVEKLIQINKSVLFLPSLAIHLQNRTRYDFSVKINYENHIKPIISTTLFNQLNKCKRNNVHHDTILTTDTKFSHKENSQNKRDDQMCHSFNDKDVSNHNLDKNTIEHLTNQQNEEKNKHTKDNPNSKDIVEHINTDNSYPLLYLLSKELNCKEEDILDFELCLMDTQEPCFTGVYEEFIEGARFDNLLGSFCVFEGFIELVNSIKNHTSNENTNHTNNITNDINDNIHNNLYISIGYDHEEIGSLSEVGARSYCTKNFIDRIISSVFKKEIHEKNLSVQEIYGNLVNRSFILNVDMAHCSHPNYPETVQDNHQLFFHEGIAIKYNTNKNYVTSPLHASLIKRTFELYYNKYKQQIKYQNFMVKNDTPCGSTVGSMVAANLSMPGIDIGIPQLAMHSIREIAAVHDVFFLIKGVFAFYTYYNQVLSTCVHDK
Sequence of Melanin-concentrating hormone receptor 1 (Q99705 whole entry): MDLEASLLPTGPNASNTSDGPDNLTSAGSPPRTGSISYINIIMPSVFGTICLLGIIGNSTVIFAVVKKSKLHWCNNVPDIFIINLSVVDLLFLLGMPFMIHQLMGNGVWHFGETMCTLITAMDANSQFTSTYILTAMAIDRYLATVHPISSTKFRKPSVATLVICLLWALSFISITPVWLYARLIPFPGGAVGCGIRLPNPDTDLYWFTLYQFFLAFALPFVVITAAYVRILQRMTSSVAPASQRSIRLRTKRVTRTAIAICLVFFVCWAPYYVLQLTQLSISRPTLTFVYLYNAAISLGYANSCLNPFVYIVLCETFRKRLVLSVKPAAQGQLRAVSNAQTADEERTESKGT

In the case of `CC1CCCCN1CC(=O)Nc1sc2c(c1C#N)CCC2` (centres undefined), the IC50 (Estrogen receptor beta [1]) is reported as > 50 µM (not active) and the IC50 (Estrogen receptor beta [2]) is reported as > 50 µM (not active).

For `O=C(NC1CCCCC1)C(c1ccncc1)N(Cc1ccc2c(c1)OCO2)C(=O)c1cnsn1` (centres undefined), the IC50 [3] was > 43.8 µM (not active), the IC50 [4] was > 35 µM (not active) and the IC50 [5] was > 43.8 µM (not active). For the same molecule, the IC50 [6] was 32.2 µM (not active).

In the case of `COc1ccc(CCN2C(=O)c3[nH]nc(-c4ccccc4O)c3C2c2ccc(C)cc2)cc1OC` (centres undefined), the IC50 [7] is reported as 2.9 µM (active), the EC50 [8] is reported as 8.11 µM (active) and the EC50 [9] is reported as 9.9 µM (active). The EC50 [10] was 21.1 µM (active), the EC50 [11] was 21.6 µM (active) and the AC50 [12] was 2.11 µM (active). The AC50 [13] was 2.58 µM (active), the AC50 [14] was 3.34 µM (active) and the AC50 [15] was 6.57 µM (active).

In the case of `O=[N+]([O-])c1cccc(-c2cc(O)n[nH]2)c1`, the IC50 (Leucine aminopeptidase) is reported as 6.99 µM (active), the IC50 (Aspartyl aminopeptidase) is reported as > 73.5 µM (not active) and the IC50 (Procathepsin L) is reported as > 59.6 µM (not active). The AC50 [16] was 7.14 µM (active) and the EC50 (Protein RecA) was 2.57 µM (active).

In the case of `CCCCn1c(-c2csc(C(C)C)c2)n[nH]c1=S`, the EC50 [17] is reported as 308 µM (active) and the IC50 [18] is reported as > 50 µM (not active).

For `CCc1ccc2nc3n[nH]c(N)c3cc2c1`, the IC50 (Large T antigen) was 13.5 µM (active) and the IC50 [19] was 24.9 µM (not active).

Reference: ChEMBL document CHEMBL1201862, “PubChem BioAssay data set” (2004)
